# Tested on: DMPG lipid bilayer supported on MS-PPE
# Test: Superquenching flow cytometric assay for disruption of DMPG lipid bilayer supported on MS-PPE
# Format: biochemical
# Method: Lipid bilayers were disrupted by adding TRITON X-100 detergent to the bead suspension to a final concentration of 0.25% (w/v).
# Bead suspensions of 2.5×10^5 DMPG-coated MS-PPE in 200 μL of PBS were analyzed using a FACScan flow cytometer (Becton-Dickinson, Sunnyvale, Calif.) with excitation at 488 nm. Fluorescence signals were acquired on FL-1 channel (525 nm) using log amplification and analyzed with the CellQuest software. Kinetic analysis of disruption of supported lipid bilayer by melittin was performed by acquiring real-time data with continuous mixing of samples (10^6 MS-PPE in 800 μl of PBS) using a magnetic stirrer. The raw data were analyzed using IDL Query software developed by Bruce Edwards (Cancer Center, University of New Mexico, Albuquerque, N. Mex.).
# Because an anionic lipid was used to form a lipid bilayer around MS-PPE, it was expected that MLT will disrupt the DMPG lipid bilayer by such a detergent-like action. This was tested by adding 10 μM AQS to DMPG-coated MS-PPE followed by treatment with one of the following: TRITON X-100 detergent, synthetic MLT (sMLT), or natural MLT (nMLT) and immediately reading the fluorescence by flow cytometry. […] These histograms resemble the ones reported previously for MS-PPE, without a lipid coating, in absence and in presence of AQS.
# From FIG. 18, the association constant (corresponding to the reciprocal of the point of half saturation) for nMLT and sMLT with DMPG were 5×10^6 M^−1 and 1.7×10^6 M^−1, respectively. […] Lower concentrations of nMLT, in comparison to sMLT, were required to disrupt the DMPG lipid bilayer. This might be attributed to the fact that nMLT contains some phospholipase A2 (PLA2) as a contaminant. PLA2 has a high affinity for anionic phospholipids, with an association constant of 0.5×10^10 M^−1 (Kim et al., Anal. Chem. 250, 109-116 (1997)), which is about 3000 fold higher than that of MLT. Although PLA2 activity requires calcium, which is not present in the experimental system, it has been reported that even upon addition of EDTA to natural MLT, PLA2 maintains its activity, probably due to formation of a tight complex with calcium with PLA2 (Dempsey, C. E. Biochim. Biophys. Acta 1990, 1031, 143-161).
# The kinetics of disruption of supported lipid bilayer by MLT were monitored by measuring real-time changes in fluorescence intensity by flow cytometry (FIG. 19). Suspensions of 10^6 DMPG-coated MS-PPE in 800 μL of PBS were treated with AQS at a final concentration of 10 μM, then with either sMLT, TRITON X-100 detergent, or no treatment. […] Treatment with sMLT in the absence of AQS led to an increase in normalized fluorescence (FIG. 19, trace A). This can be attributed to disruption of the lipid bilayer by sMLT, and is consistent with a reversal of the slight quenching of fluorescence caused by the formation of a DMPG lipid bilayer over MS-PPE. Addition of AQS alone to DMPG-coated MS-PPE (FIG. 19, trace C) led to a 20% reduction in fluorescence as reported earlier. Addition of TRITON X-100 detergent to DMPG-coated MS-PPE after the addition of AQS (first dip in trace E, FIG. 19) caused immediate decrease in fluorescence to ˜10% of its original value (second dip in trace E, FIG. 19). In contrast, addition of sMLT, after the addition of AQS, (FIG. 19, trace D) led to a gradual reduction of fluorescence intensity to ˜20% of the original value. Although MLT forms dimers at high concentrations (Dempsey, C. E. Biochim. Biophys. Acta 1990, 1031, 143-161), it is monomeric at the concentrations used in this study. On the other hand, TRITON X-100 detergent forms micelles at the concentration used in this study.
substance,measurement,setting,value
TRITON X-100,"fluorescence after disruption of the lipid bilayer, % of the original fluorescence value","0.25% (w/v) TRITON X-100, 10 μM AQS, Example 2",~10%
same,"fluorescence after disruption, % of the fluorescence of DMPG-coated MS-PPE in the absence of quencher","0.25% (w/v) TRITON X-100, 10 μM AQS, Example 3",~18%
same,"fluorescence intensity after addition, % of original value (real-time kinetics)","10^6 DMPG-coated MS-PPE in 800 μL PBS, after 10 μM AQS",~10%

# — patent US8465983B1, “Detection and delivery systems utilizing supported lipid bilayers” (priority 2005, dated 2013)
